Laboratory results as given in patent US9062043B2, “Fused tricyclic compounds as serine-threonine protein kinase and PARP modulators” (SENHWA BIOSCIENCES, INC., priority 2006, dated 2015).

Columns and labels:
Test in all cases: Kinase inhibition, percentage of activity at 0.5 μM, standardized radiometric kinase assays;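 further: each kinase tested separately, with activity read as 33P-labelled substrate protein captured on filters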
Assay type in all cases: biochemical
protein kinases [1] = molecular target: protein kinases (Homo sapiens, UniProt Q14680); conditions: MELK(h)
protein kinases [2] = molecular target: protein kinases (Homo sapiens, UniProt Q99683); conditions: ASK1(h)
protein kinases [3] = molecular target: protein kinases (Homo sapiens, UniProt P51813); conditions: Bmx(h)
protein kinases [4] = molecular target: protein kinases (Homo sapiens, UniProt P08922); conditions: Ros(h)
protein kinases [5] = molecular target: protein kinases (Homo sapiens, UniProt Q8IW41); conditions: PRAK(h)
protein kinases [6] = molecular target: protein kinases (Homo sapiens, UniProt O43293); conditions: ZIPK(h)
protein kinases [7] = molecular target: protein kinases (Homo sapiens, UniProt Q9H422); conditions: HIPK3(h)
protein kinases [8] = molecular target: protein kinases (Homo sapiens, UniProt P11309); conditions: Pim-1(h)
protein kinases [9] = molecular target: protein kinases (Homo sapiens, UniProt P50613); conditions: CDK7/cyclinH/MAT1(h)
protein kinases [10] = molecular target: protein kinases (Homo sapiens, UniProt P17612); conditions: PKA(h)
protein kinases [11] = molecular target: protein kinases (Homo sapiens, UniProt Q14012); conditions: CaMKI(h)
protein kinases [12] = molecular target: protein kinases (Homo sapiens, UniProt Q13464); conditions: ROCK-I(h)
protein kinases [13] = conditions: MAPK1(h)
protein kinases [14] = molecular target: protein kinases (Homo sapiens, UniProt P08631); conditions: Hck(h)
protein kinases [15] = molecular target: protein kinases (Homo sapiens, UniProt P08069); conditions: IGF-1R(h)
protein kinases [16] = molecular target: protein kinases (Homo sapiens, UniProt O43318); conditions: TAK1(h)
protein kinases [17] = molecular target: protein kinases (Homo sapiens, UniProt Q06418); conditions: Rse(h)
Sequence of protein kinases (Homo sapiens, UniProt Q06418) (Q06418 41-890 limits assumed): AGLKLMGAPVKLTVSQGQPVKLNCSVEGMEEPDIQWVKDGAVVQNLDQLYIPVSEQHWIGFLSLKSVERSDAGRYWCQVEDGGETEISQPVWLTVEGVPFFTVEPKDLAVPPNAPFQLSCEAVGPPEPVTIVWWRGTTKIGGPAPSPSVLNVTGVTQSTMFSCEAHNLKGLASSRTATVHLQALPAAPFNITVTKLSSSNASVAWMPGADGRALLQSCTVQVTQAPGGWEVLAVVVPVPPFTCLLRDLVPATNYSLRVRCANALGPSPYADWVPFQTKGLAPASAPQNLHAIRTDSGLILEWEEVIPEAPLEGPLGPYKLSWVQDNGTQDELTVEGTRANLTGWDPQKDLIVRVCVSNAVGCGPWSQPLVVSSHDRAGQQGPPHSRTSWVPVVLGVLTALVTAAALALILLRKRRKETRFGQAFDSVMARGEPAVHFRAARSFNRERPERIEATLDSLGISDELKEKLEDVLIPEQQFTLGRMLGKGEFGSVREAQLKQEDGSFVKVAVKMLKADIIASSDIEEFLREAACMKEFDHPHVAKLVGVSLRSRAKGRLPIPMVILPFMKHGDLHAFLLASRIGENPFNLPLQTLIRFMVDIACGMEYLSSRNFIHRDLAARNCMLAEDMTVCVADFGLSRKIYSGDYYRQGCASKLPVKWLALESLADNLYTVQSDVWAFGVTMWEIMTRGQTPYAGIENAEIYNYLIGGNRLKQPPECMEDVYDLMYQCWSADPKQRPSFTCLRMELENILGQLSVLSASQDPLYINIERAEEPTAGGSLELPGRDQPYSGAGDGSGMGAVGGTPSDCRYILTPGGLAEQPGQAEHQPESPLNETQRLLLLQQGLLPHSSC

protein kinases [18] = molecular target: protein kinases (Homo sapiens, UniProt Q15418); conditions: Rsk1(h)
protein kinases [19] = molecular target: protein kinases (Homo sapiens, UniProt P23443); conditions: p70S6K(h)
protein kinases [20] = molecular target: protein kinases (Homo sapiens, UniProt Q13177); conditions: PAK2(h)
protein kinases [21] = molecular target: protein kinases (Homo sapiens, UniProt Q15303); conditions: ErbB4(h)
Sequence of protein kinases (Homo sapiens, UniProt Q15303) (Q15303 26-1308 limits assumed): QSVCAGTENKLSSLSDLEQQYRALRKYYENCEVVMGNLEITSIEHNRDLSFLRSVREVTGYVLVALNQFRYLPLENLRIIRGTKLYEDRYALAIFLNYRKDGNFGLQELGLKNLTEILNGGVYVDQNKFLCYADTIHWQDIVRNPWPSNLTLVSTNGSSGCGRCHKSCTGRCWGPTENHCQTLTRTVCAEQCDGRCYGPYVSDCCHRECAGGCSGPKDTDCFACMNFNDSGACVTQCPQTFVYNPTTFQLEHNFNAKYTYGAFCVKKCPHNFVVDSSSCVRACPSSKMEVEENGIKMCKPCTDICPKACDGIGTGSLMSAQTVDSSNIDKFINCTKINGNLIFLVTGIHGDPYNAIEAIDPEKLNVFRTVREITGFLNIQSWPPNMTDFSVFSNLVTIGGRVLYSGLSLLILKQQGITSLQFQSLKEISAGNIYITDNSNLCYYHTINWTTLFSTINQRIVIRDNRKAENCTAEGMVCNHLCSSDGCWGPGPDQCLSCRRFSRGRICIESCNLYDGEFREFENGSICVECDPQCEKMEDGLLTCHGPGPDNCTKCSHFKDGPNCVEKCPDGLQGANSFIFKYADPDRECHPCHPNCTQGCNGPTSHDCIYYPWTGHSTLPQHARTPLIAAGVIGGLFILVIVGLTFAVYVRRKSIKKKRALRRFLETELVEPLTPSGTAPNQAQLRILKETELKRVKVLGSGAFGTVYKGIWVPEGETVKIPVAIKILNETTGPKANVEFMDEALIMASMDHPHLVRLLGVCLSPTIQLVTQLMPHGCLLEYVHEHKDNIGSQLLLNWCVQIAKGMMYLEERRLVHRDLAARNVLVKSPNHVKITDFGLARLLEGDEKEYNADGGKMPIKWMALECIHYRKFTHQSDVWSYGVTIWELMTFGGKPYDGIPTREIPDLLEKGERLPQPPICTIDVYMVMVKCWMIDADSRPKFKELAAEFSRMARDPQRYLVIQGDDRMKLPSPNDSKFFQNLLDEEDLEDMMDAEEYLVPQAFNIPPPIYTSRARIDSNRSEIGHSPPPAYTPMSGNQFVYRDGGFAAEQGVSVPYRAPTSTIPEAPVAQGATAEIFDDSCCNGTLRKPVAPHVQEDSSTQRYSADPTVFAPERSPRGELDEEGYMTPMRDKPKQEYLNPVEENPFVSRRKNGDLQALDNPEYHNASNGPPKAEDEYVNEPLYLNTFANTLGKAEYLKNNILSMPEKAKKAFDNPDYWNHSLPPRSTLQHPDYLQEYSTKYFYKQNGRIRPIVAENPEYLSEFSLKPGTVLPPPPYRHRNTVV

protein kinases [22] = molecular target: protein kinases (Homo sapiens, UniProt Q16832); conditions: DDR2(h)
protein kinases [23] = molecular target: protein kinases (Homo sapiens, UniProt Q96SB4); conditions: SRPK1(h)
protein kinases [24] = molecular target: protein kinases (Homo sapiens, UniProt P04629); conditions: TrkA(h)
Sequence of protein kinases (Homo sapiens, UniProt P04629) (P04629 33-796 limits assumed): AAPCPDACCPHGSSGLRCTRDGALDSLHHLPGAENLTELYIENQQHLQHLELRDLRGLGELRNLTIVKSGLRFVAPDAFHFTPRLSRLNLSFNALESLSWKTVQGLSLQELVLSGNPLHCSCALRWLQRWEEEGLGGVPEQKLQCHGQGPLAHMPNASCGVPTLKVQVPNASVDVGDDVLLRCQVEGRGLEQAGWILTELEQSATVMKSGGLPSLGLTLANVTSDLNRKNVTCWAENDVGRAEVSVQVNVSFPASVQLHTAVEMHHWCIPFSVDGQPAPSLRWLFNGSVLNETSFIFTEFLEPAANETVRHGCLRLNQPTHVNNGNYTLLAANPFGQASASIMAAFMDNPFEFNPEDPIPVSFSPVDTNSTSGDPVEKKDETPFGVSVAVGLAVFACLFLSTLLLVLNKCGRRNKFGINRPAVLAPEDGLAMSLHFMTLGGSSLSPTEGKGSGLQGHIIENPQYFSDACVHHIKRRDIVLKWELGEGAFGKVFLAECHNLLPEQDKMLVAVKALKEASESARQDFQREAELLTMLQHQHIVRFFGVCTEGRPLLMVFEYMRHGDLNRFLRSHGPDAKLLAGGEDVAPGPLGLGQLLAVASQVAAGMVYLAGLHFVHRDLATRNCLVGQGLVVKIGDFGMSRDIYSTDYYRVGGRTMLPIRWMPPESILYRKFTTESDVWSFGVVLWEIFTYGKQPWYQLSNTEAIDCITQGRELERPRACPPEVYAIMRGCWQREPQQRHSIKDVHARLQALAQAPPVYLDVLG

protein kinases [25] = molecular target: protein kinases (Homo sapiens, UniProt O14965); conditions: Aurora-A(h)
protein kinases [26] = molecular target: protein kinases (Homo sapiens, UniProt P16234, D842V); conditions: PDGFRα(D842V)(h)
Sequence of protein kinases (Homo sapiens, UniProt P16234, D842V) (P16234 24-1089 D842V limits assumed): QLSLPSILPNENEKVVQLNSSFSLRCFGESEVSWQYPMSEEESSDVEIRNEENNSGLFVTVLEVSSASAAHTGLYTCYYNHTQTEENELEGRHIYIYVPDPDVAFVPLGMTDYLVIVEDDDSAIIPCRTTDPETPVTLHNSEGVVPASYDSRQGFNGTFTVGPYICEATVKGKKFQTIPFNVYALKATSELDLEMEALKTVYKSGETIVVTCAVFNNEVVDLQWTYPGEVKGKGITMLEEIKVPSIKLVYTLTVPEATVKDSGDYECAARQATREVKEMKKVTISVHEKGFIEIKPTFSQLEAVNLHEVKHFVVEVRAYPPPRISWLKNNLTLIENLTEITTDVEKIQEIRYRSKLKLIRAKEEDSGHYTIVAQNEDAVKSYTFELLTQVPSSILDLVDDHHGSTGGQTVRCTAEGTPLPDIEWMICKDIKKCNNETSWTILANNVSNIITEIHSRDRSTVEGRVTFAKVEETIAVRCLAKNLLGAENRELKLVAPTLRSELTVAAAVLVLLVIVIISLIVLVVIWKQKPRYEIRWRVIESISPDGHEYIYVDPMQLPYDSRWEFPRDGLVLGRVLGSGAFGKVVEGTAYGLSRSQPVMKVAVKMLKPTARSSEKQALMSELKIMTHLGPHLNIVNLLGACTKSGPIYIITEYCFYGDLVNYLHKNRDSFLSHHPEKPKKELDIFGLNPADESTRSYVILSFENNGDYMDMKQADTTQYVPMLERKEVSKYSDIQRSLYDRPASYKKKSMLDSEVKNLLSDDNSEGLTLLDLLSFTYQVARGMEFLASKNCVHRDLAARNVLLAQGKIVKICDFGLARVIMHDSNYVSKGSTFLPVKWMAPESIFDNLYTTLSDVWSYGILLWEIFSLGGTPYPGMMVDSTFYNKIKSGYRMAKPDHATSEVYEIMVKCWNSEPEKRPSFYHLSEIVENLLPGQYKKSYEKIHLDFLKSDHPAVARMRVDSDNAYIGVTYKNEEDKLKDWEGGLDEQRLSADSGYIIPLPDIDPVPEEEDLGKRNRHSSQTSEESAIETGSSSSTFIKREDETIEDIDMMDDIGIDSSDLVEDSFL

protein kinases [27] = molecular target: protein kinases (Homo sapiens, UniProt P07332); conditions: Fes(h)
protein kinases [28] = molecular target: protein kinases (Homo sapiens, UniProt Q13882); conditions: BRK(h)
protein kinases [29] = molecular target: protein kinases (Homo sapiens, UniProt P80192); conditions: MLK1(h)
protein kinases [30] = molecular target: protein kinases (Homo sapiens, UniProt P16591); conditions: Fer(h)
protein kinases [31] = molecular target: protein kinases (Homo sapiens, UniProt P07947); conditions: Yes(h)
protein kinases [32] = molecular target: protein kinases (Homo sapiens, UniProt P36888, D835Y); conditions: Flt3(D835Y)(h)
protein kinases [33] = molecular target: protein kinases (Homo sapiens, UniProt O15111); conditions: IKKα(h)
protein kinases [34] = molecular target: protein kinases (Homo sapiens, UniProt O15530); conditions: PDK1(h)
protein kinases [35] = molecular target: protein kinases (Homo sapiens, UniProt P35916); conditions: Flt4(h)
protein kinases [36] = molecular target: protein kinases (Homo sapiens, UniProt P07333); conditions: Fms(h)
protein kinases [37] = molecular target: protein kinases (Homo sapiens, UniProt P36888); conditions: Flt3(h)
protein kinases [38] = molecular target: protein kinases (Homo sapiens, UniProt Q92630); conditions: DYRK2(h)
protein kinases [39] = molecular target: protein kinases (Homo sapiens, UniProt P54760); conditions: EphB4(h)
protein kinases [40] = molecular target: protein kinases (Homo sapiens, UniProt Q9UM73); conditions: ALK(h)
protein kinases [41] = molecular target: protein kinases (Homo sapiens, UniProt Q02750); conditions: MEK1(h)
protein kinases [42] = molecular target: protein kinases (Homo sapiens, UniProt P10721, D816H); conditions: cKit(D816H)(h)
Sequence of protein kinases (Homo sapiens, UniProt P10721, D816H) (P10721 26-976 D816H limits assumed): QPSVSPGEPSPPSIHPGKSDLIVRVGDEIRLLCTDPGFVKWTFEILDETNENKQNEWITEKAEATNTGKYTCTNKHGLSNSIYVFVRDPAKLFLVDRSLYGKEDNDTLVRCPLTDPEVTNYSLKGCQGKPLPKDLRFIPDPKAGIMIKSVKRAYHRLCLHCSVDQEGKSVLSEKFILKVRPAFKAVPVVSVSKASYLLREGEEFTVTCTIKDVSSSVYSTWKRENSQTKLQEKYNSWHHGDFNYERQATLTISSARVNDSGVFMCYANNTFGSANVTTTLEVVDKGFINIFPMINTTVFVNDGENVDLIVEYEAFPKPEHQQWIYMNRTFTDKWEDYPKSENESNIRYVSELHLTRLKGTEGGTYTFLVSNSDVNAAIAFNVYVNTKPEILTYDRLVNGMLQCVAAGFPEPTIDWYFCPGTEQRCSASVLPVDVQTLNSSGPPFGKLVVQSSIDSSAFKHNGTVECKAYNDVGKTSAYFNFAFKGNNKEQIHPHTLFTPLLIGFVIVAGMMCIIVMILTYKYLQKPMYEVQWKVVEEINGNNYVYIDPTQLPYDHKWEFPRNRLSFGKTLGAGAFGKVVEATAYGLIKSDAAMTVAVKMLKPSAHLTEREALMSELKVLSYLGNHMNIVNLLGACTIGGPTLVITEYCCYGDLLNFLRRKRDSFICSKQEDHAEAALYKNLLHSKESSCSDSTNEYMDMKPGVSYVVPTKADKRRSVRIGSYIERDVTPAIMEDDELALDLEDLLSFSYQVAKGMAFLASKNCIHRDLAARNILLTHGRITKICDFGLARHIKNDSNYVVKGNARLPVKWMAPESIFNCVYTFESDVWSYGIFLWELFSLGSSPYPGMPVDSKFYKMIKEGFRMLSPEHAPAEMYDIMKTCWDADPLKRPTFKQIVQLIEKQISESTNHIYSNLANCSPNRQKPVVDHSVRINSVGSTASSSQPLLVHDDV

`C#Cc1cccc(Nc2nc3cc(C(=O)O)ccc3c3cncnc23)c1` [compound A2] showed an activity at 0.5 µM (protein kinases [1]) of 49%, an activity at 0.5 µM (protein kinases [2]) of 116% and an activity at 0.5 µM (protein kinases [3]) of 118%. For the same compound, the activity at 0.5 µM (protein kinases [4]) was 110%, the activity at 0.5 µM (protein kinases [5]) was 93% and the activity at 0.5 µM (protein kinases [6]) was 12%. For the same compound, the activity at 0.5 µM (protein kinases [7]) was 10%, the activity at 0.5 µM (protein kinases [8]) was 27% and the activity at 0.5 µM (protein kinases [9]) was 77%. It also gave an activity at 0.5 µM (protein kinases [10]) of 90%, an activity at 0.5 µM (protein kinases [11]) of 104% and an activity at 0.5 µM (protein kinases [12]) of 97%. The “% activity at 0.5 μM” value (protein kinases [13]) was 95%, the activity at 0.5 µM (protein kinases [14]) was 111% and the activity at 0.5 µM (protein kinases [15]) was 73%. It also gave an activity at 0.5 µM (protein kinases [16]) of 101%, an activity at 0.5 µM (protein kinases [17]) of 109% and an activity at 0.5 µM (protein kinases [18]) of 78%. It also gave an activity at 0.5 µM (protein kinases [19]) of 80%, an activity at 0.5 µM (protein kinases [20]) of 112% and an activity at 0.5 µM (protein kinases [21]) of 126%. It also gave an activity at 0.5 µM (protein kinases [22]) of 109%, an activity at 0.5 µM (protein kinases [23]) of 66% and an activity at 0.5 µM (protein kinases [24]) of 90%. It also gave an activity at 0.5 µM (protein kinases [25]) of 94%, an activity at 0.5 µM (protein kinases [26]) of 109% and an activity at 0.5 µM (protein kinases [27]) of 139%. The activity at 0.5 µM (protein kinases [28]) was 110%, the activity at 0.5 µM (protein kinases [29]) was 80% and the activity at 0.5 µM (protein kinases [30]) was 103%. For the same compound, the activity at 0.5 µM (protein kinases [31]) was 109%, the activity at 0.5 µM (protein kinases [32]) was 17% and the activity at 0.5 µM (protein kinases [33]) was 101%. It also gave an activity at 0.5 µM (protein kinases [34]) of 110%, an activity at 0.5 µM (protein kinases [35]) of -1% and an activity at 0.5 µM (protein kinases [36]) of 174%. The activity at 0.5 µM (protein kinases [37]) was 42%, the activity at 0.5 µM (protein kinases [38]) was 50% and the activity at 0.5 µM (protein kinases [39]) was 144%. The activity at 0.5 µM (protein kinases [40]) was 112%, the activity at 0.5 µM (protein kinases [41]) was 136% and the activity at 0.5 µM (protein kinases [42]) was 101%.
